Tested on: Jurkat cells
Assay: Jurkat cell proliferation, MTS method: compound alone or combined with bleomycin
Assay type: cell-based
Design: key: ┌++┘ indicates observation of remarkable enhancement; ┌+┘ indicates moderated enhancement
Details: compound plus bleomycin 5 μg/ml or 10 μg/ml, 36 hours, survival rate vs DMSO control
Method: By using aforementioned synthetic compounds, effects on proliferation of Jurkat cells by sole administration and inhibitory effects on cell proliferation by administration in combination with bleomycin were examined. Materials and methods are as follows. Jurkat cells obtained from Dainippon Pharmaceutical Co. Ltd. were inoculated at about 10,000 cells per well in a 96 well culture plate, and incubated in 10% bovine fetal serum (Irvine Scientific) supplemented with RPMI1640 (ICN) medium in 5% CO2 incubator at 37° C. […] 36 hours after the incubation, the number of living cells was counted by the MTS method.
More specifically, 20 μl of CellTiter96™ AQueous One Solution (Promega) was added per one well, and after the cells were incubated for additional one hour, an absorbance at 490 nm was measured by using a microplate reader. The same culture added with DMSO as a solvent at final concentration of 0.25% was used as a control. The number of cells in the control was considered as 100% survival rate, and for each compound, survival rates by sole administration or a combined administration were calculated. […] In the table, ┌++┘ indicates observation of remarkable enhancement, ┌+┘ indicates moderated enhancement.

With `O=S(=O)(NCc1ccc(C(F)(F)F)cc1)c1cccc2c(O)cccc12` [Compound 2-9, N-[4-(Trifluoromethyl)benzyl]-5-hydroxynaphthalene-1-sulfonamide] the “Activity (enhancement of inhibitory effect on cell proliferation in combination with bleomycin)” value was “+”.
With `Cc1ccc(S(=O)(=O)Oc2cccc3c(S(=O)(=O)N(C)Cc4ccccc4)cccc23)cc1` [Compound 1-27, N-Benzyl-N-methyl-5-{[(4-methylphenyl)sulfonyl]oxy}naphthalene-1-sulfonamide] the “Activity (enhancement of inhibitory effect on cell proliferation in combination with bleomycin)” value was “+”.
For `O=S(=O)(NCc1ccc(Cl)cc1Cl)c1cccc2c(O)cccc12` [Compound 2-3, N-(2,4-Dichlorobenzyl)-5-hydroxynaphthalene-1-sulfonamide], the “Activity (enhancement of inhibitory effect on cell proliferation in combination with bleomycin)” value was “++”.
For `Nc1cccc2c(C(=O)NCc3ccccc3)cccc12` [Compound 11-1, 5-Amino-N-benzylnaphthalene-1-carboxamide], the “Activity (enhancement of inhibitory effect on cell proliferation in combination with bleomycin)” value was “+”.
In the case of `COc1ccccc1CNS(=O)(=O)c1cccc2c(O)cccc12` [Compound 2-11, N-(2-Methoxylbenzyl)-5-hydroxynaphthalene-1-sulfonamide], the “Activity (enhancement of inhibitory effect on cell proliferation in combination with bleomycin)” value is reported as “+”.
For `Cc1ccc(S(=O)(=O)Oc2cccc3c(S(=O)(=O)NCc4ccc(N(C)C)cc4)cccc23)cc1` [Compound 1-17, N-[4-(Dimethylamino)benzyl]-5-{[(4-methylphenyl)sulfonyl]oxy}naphthalene-1-sulfonamide], the “Activity (enhancement of inhibitory effect on cell proliferation in combination with bleomycin)” value was “++”.
With `Nc1cccc(CNS(=O)(=O)c2ccc3c(O)cccc3c2)c1` [Compound 4-7, N-(3-Aminobenzyl)-5-hydroxynaphthalene-2-sulfonamide] the “Activity (enhancement of inhibitory effect on cell proliferation in combination with bleomycin)” value was “+”.
For `COc1cccc(CNS(=O)(=O)c2cccc3c(O)cccc23)c1OC` [Compound 2-13, N-(2,3-Dimethoxylbenzyl)-5-hydroxynaphthalene-1-sulfonamide], the “Activity (enhancement of inhibitory effect on cell proliferation in combination with bleomycin)” value was “+”.
`Cc1ccc(S(=O)(=O)Oc2cccc3c(S(=O)(=O)NCCc4ccccc4)cccc23)cc1` [Compound 1-25, N-(2-Phenethyl)-5-{[(4-methylphenyl)sulfonyl]oxy}naphthalene-1-sulfonamide] was tested, and the “Activity (enhancement of inhibitory effect on cell proliferation in combination with bleomycin)” value was “+”.
For `CC(C)(C)c1ccc(CNS(=O)(=O)c2ccc3c(N)cccc3c2)cc1` [Compound 6-2, 5-Amino-N-[4-(tert-butyl)benzyl]naphthalene-2-sulfonamide], the “Activity (enhancement of inhibitory effect on cell proliferation in combination with bleomycin)” value was “+”.

From US7598418B2, “Amide derivatives” (Institute of Medicinal Molecular Design, Inc., priority 2002, dated 2009)
